According to the supplement of paper PMC10307832:

What was measured:
Assay in all cases: relative viability (nuclei count vs DMSO), 5 days (fraction); higher = more cells survive
HCC-827 = test system: HCC-827
In short: (§1)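 Relative viability divides the nuclei count in treated wells by that in vehicle wells. Lung cancer cell lines were seeded in 1536-well plates, dosed by pin tool the next day, and fixed and stained after 5 days in one step with final 0.05% Triton X-100, 1% formaldehyde and 1 ug/ml Hoechst. Dosing was a single drug or a fixed anchor-drug dose plus five library-drug doses (not always all listed) in √10 steps, and values are medians of duplicate plates imaged at 4×.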

NCI-H2126 = test system: NCI-H2126
In short: as §1

NCI-H1395 = test system: NCI-H1395
In short: as §1

LXF-289 = test system: LXF-289
In short: as §1

NCI-H650 = test system: NCI-H650
In short: as §1

NCI-H2170 = test system: NCI-H2170
In short: as §1

NCI-H647 = test system: NCI-H647
In short: as §1

NCI-H2347 = test system: NCI-H2347
In short: as §1

NCI-H358 = test system: NCI-H358
In short: as §1

RERF-LC-KJ = test system: RERF-LC-KJ
In short: as §1

NCI-H23 = test system: NCI-H23
In short: as §1

SW 900 = test system: SW 900
In short: as §1

LCLC-103H = details: first compound 0.001 µM
In short: as §1

Cc1cn(-c2cc(NC(=O)c3ccc(C)c(Nc4nccc(-c5cccnc5)n4)c3)cc(C(F)(F)F)c2)cn1 [Nilotinib] + Nc1nc2[nH]cc(CCc3ccc(C(=O)N[C@@H](CCC(=O)O)C(=O)O)cc3)c2c(=O)[nH]1 [Pemetrexed] (partner 0.2 µM)
relative viability (HCC-827; first compound 0.001 µM): 0.272
relative viability (HCC-827; first compound 0.003162 µM): 0.224
relative viability (HCC-827; first compound 0.03162 µM): 0.217
relative viability (HCC-827; first compound 0.1 µM): 0.245
relative viability (NCI-H2126; first compound 0.001 µM): 0.68
relative viability (NCI-H2126; first compound 0.003162 µM): 0.767
relative viability (NCI-H2126; first compound 0.01 µM): 0.79
relative viability (NCI-H2126; first compound 0.03162 µM): 0.656
relative viability (NCI-H2126; first compound 0.1 µM): 0.47
relative viability (NCI-H1395; first compound 0.001 µM): 1
relative viability (NCI-H1395; first compound 0.01 µM): 0.607
relative viability (NCI-H1395; first compound 0.03162 µM): 0.642
relative viability (NCI-H1395; first compound 0.1 µM): 0.517
relative viability (LXF-289; first compound 0.001 µM): 0.836
relative viability (LXF-289; first compound 0.003162 µM): 1.07
relative viability (LXF-289; first compound 0.01 µM): 1.01
relative viability (LXF-289; first compound 0.03162 µM): 0.878
relative viability (LXF-289; first compound 0.1 µM): 0.519
relative viability (NCI-H650; first compound 0.001 µM): 0.887
relative viability (NCI-H650; first compound 0.003162 µM): 0.86
relative viability (NCI-H650; first compound 0.01 µM): 1.12
relative viability (NCI-H650; first compound 0.03162 µM): 0.914
relative viability (NCI-H650; first compound 0.1 µM): 0.746
relative viability (NCI-H2170; first compound 0.001 µM): 0.265
relative viability (NCI-H2170; first compound 0.003162 µM): 0.261
relative viability (NCI-H2170; first compound 0.03162 µM): 0.252
relative viability (NCI-H2170; first compound 0.1 µM): 0.315
relative viability (NCI-H647; first compound 0.001 µM): 0.158
relative viability (NCI-H647; first compound 0.003162 µM): 0.158
relative viability (NCI-H647; first compound 0.01 µM): 0.118
relative viability (NCI-H647; first compound 0.03162 µM): 0.138
relative viability (NCI-H647; first compound 0.1 µM): 0.118
relative viability (NCI-H2347; first compound 0.001 µM): 0.401
relative viability (NCI-H2347; first compound 0.003162 µM): 0.384
relative viability (NCI-H2347; first compound 0.01 µM): 0.435
relative viability (NCI-H2347; first compound 0.03162 µM): 0.517
relative viability (NCI-H2347; first compound 0.1 µM): 0.418
relative viability (NCI-H358; first compound 0.001 µM): 0.187
relative viability (NCI-H358; first compound 0.003162 µM): 0.175
relative viability (NCI-H358; first compound 0.01 µM): 0.169
relative viability (NCI-H358; first compound 0.03162 µM): 0.144
relative viability (NCI-H358; first compound 0.1 µM): 0.152
relative viability (RERF-LC-KJ; first compound 0.001 µM): 0.508
relative viability (RERF-LC-KJ; first compound 0.003162 µM): 0.6
relative viability (RERF-LC-KJ; first compound 0.01 µM): 0.454
relative viability (RERF-LC-KJ; first compound 0.03162 µM): 0.422
relative viability (RERF-LC-KJ; first compound 0.1 µM): 0.274
relative viability (NCI-H23; first compound 0.001 µM): 0.739
relative viability (NCI-H23; first compound 0.003162 µM): 0.553
relative viability (NCI-H23; first compound 0.01 µM): 0.494
relative viability (NCI-H23; first compound 0.03162 µM): 0.575
relative viability (NCI-H23; first compound 0.1 µM): 0.368
relative viability (SW 900; first compound 0.003162 µM): 0.459
relative viability (SW 900; first compound 0.01 µM): 0.38
relative viability (SW 900; first compound 0.03162 µM): 0.239
relative viability (SW 900; first compound 0.1 µM): 0.245
relative viability (LCLC-103H): 0.447
